Values joined by “and” are separate entries in the source; they are usually repeats but may differ in a detail not shown here. Identical values can stand only once.
Experiments:
[1] = 101.33 kPa, Liquid, Vibrating tube method
[2] = excess molar enthalpy (molar enthalpy of mixing); xn = mol fraction of the nth substance listed; details: 100 kPa, Liquid, Flow calorimetry
[3] = xn = mol fraction of the nth substance listed; details: 100 kPa, Liquid, Vibrating tube method

CCCCC(C)=O [2-hexanone]
[1]
Details	mass density [kg/m3]
288.15 K	815.72
298.15 K	806.7
308.15 K	797.6
318.15 K	788.45

CCCCC(C)=O [2-hexanone] + O
Details	excess molar enthalpy, [2]	mass density, [3]
288.15 K, x1 = 0.00087	-0.00256 kcal/mol and -0.00254 kcal/mol	998.466 kg/m3 and 998.439 kg/m3
288.15 K, x1 = 0.00116	-0.00343 kcal/mol and -0.00339 kcal/mol	998.248 kg/m3 and 998.255 kg/m3
288.15 K, x1 = 0.00145	-0.00423 kcal/mol and -0.00421 kcal/mol	998.054 kg/m3
288.15 K, x1 = 0.001739	-0.00503 kcal/mol and -0.00504 kcal/mol	997.852 kg/m3 and 997.853 kg/m3
298.15 K, x1 = 0.000869	-0.00197 kcal/mol	996.347 kg/m3
298.15 K, x1 = 0.00087	-0.00198 kcal/mol	996.364 kg/m3
298.15 K, x1 = 0.001159	-0.00264 kcal/mol	996.128 kg/m3
298.15 K, x1 = 0.00116	-0.00262 kcal/mol	996.137 kg/m3
298.15 K, x1 = 0.001448	-0.00321 kcal/mol	995.926 kg/m3
298.15 K, x1 = 0.00145	-0.00329 kcal/mol	995.903 kg/m3
298.15 K, x1 = 0.001737	-0.00394 kcal/mol	995.664 kg/m3
298.15 K, x1 = 0.00174	-0.0039 kcal/mol	995.681 kg/m3
308.15 K, x1 = 0.000869	-0.00138 kcal/mol	993.309 kg/m3 and 993.32 kg/m3
308.15 K, x1 = 0.001158	-0.0018 kcal/mol	993.074 kg/m3
308.15 K, x1 = 0.001159	-0.00181 kcal/mol	993.08 kg/m3
308.15 K, x1 = 0.001447	-0.00226 kcal/mol	992.84 kg/m3
308.15 K, x1 = 0.001448	-0.00224 kcal/mol	992.834 kg/m3
308.15 K, x1 = 0.001735	-0.00273 kcal/mol	992.573 kg/m3
308.15 K, x1 = 0.001737	-0.00273 kcal/mol	992.571 kg/m3
318.15 K, x1 = 0.000868	-0.000825 kcal/mol	989.45 kg/m3
318.15 K, x1 = 0.000869	-0.000817 kcal/mol	989.446 kg/m3
318.15 K, x1 = 0.00087	-0.000813 kcal/mol	989.455 kg/m3
318.15 K, x1 = 0.001158	-0.0011 kcal/mol	989.173 kg/m3
318.15 K, x1 = 0.001159	-0.00111 kcal/mol and -0.00109 kcal/mol	989.168 kg/m3 and 989.197 kg/m3
318.15 K, x1 = 0.001447	-0.00133 kcal/mol	988.934 kg/m3
318.15 K, x1 = 0.001448	-0.00135 kcal/mol and -0.00132 kcal/mol	988.931 kg/m3 and 988.956 kg/m3
318.15 K, x1 = 0.001736	-0.00161 kcal/mol	988.678 kg/m3
318.15 K, x1 = 0.001737	-0.00162 kcal/mol and -0.00165 kcal/mol	988.651 kg/m3 and 988.636 kg/m3

CC(=O)C(C)C [3-methyl-2-butanone]
[1]
Details	mass density [kg/m3]
288.15 K	808.3
298.15 K	798.51
308.15 K	788.6
318.15 K	778.62

CC(=O)CC(C)C [4-methylpentan-2-one]
[1]
Details	mass density [kg/m3]
288.15 K	805.12
298.15 K	795.98
308.15 K	786.75
318.15 K	777.46

CCCC(C)=O [pentan-2-one]
[1]
Details	mass density [kg/m3]
288.15 K	811.06
298.15 K	801.41
308.15 K	791.66
318.15 K	781.83

CCC(=O)CC [pentan-3-one]
[1]
Details	mass density [kg/m3]
288.15 K	818.9
298.15 K	809.16
308.15 K	799.32
318.15 K	789.41

Source: the NIST ThermoML archive (doi:10.1021/acs.jced.7b00035)
